Consider 21 molecules from patent US10111428B2, “Nematocide containing lactonic ring and preparation method and application thereof” (priority 2015, dated 2018).

Data set [1] concerns Nematode J2. Description: Plant pathogenic nematode inhibition test by dipping: second-stage juveniles. In kind it is in vivo.
Data set [2] has as its system Edaphon. Description: Edaphon toxicity test (Test Guidelines on Environmental Safety Assessment for Chemical Pesticides). The procedure: (§1) According to the earthworm and edaphon toxicity test procedures as prescribed in the Test Guidelines on Environmental Safety Assessment for Chemical Pesticides, earthworm and edaphon toxicity tests are conducted on compounds 1 to 60 from Table 1. The simulative usual dose of pesticide in the edaphon test is 40 ppm.

For data set [3], the system named is Earthworm. Nature of the data set: Earthworm toxicity test (Test Guidelines on Environmental Safety Assessment for Chemical Pesticides). The format is in vivo. To be noted: cell adds 'low toxicity'. The procedure:
as §1

Data set [4] relates to Nematode eggs. Description: Plant pathogenic nematode inhibition test by dipping: nematode egg hatch inhibition (NY/T 1154.5-2006). The format is in vivo. On the procedure: A plant pathogenic nematode inhibition test is conducted by dipping with the compounds in Table 1; and by referring to NY/T 1154.5-2006 (Part 5: Dipping Test for Insecticide Ovicidal Activity), the nematode egg hatch inhibition activity of the compounds is tested, as shown in Table 2: […]

Setting [5] is: 15 d, 100 times of usual dose (simulative usual dose 40 ppm), cell adds 'low toxicity'.
The mark [6] stands for this setting: Test object: nematode J2 (second-stage juveniles), dipping.
The mark [7] stands for this setting: Test object: nematode eggs, dipping.

Molecules are shown by their SMILES. Values after ≈ are worked out from the molar mass of the structure shown. Read-outs that look alike come from different tables or passages of the source.

In the case of `CCOc1ccccc1C1OC(=O)CC1C(=O)OCCC(F)=C(F)F` (stereo not drawn) [Compound 43], the LC50 stood at 13.35 µg/mL (≈ 37.3 µM) in data set [1] (in vivo) and 11.98 µg/mL (≈ 33.4 µM) in data set [4] (in vivo). Besides, the “Edaphon Toxicity (15 d) (Inhibition ratio when added amount is 100 times of usual dose)” value in data set [2] (setting [5]) was <50%, low toxicity. Also, in data set [3], the “Earthworm Toxicity LC50 (14 d)” value is recorded as >10, low toxicity mg/L.

Consider `O=C1CC(C(=O)OCCC(F)=C(F)F)C(c2cccc(F)c2)O1` (stereo not drawn) [Compound 27], for which the values for the LC50 in data set [1] (setting [6]) and in data set [4] (setting [7]) were 8.91 µg/mL (≈ 26.8 µM) and 7.85 µg/mL (≈ 23.6 µM), respectively. Further, the “Edaphon Toxicity (15 d) (Inhibition ratio when added amount is 100 times of usual dose)” value in data set [2] is <50%, low toxicity. In addition, in data set [3], the “Earthworm Toxicity LC50 (14 d)” value was >10, low toxicity mg/L.

Take `O=C1CC(C(=O)OCCC=C(F)F)C(c2ccccc2OC(F)(F)F)O1` (stereo not drawn) [Compound 40]: the results for the LC50 in data set [1] (in vivo) and in data set [4] (in vivo) were 13.40 µg/mL (≈ 35.2 µM) and 10.04 µg/mL (≈ 26.4 µM), respectively. Further, the “Edaphon Toxicity (15 d) (Inhibition ratio when added amount is 100 times of usual dose)” value in data set [2] (setting [5]) is listed as <50%, low toxicity. Moreover, in data set [3], the “Earthworm Toxicity LC50 (14 d)” value is recorded as >10, low toxicity mg/L.

Turning to `O=C1CC(C(=O)OCCC(F)=C(F)F)C(c2cc(F)ccc2F)O1` (stereo not drawn) [Compound 28], the median lethal concentration (LC50) turned out to be 15.07 µg/mL (≈ 43 µM) in data set [1] (in vivo) and 13.23 µg/mL (≈ 37.8 µM) in data set [4] (in vivo). Besides, the “Edaphon Toxicity (15 d) (Inhibition ratio when added amount is 100 times of usual dose)” value in data set [2] (setting [5]) was <50%, low toxicity. In addition, the “Earthworm Toxicity LC50 (14 d)” value in data set [3] is >10, low toxicity mg/L.

On to `Cc1ccc(Oc2ccccc2C2OC(=O)CC2C(=O)OCCC(F)=C(F)F)cc1` (stereo not drawn) [Compound 53], for which the figures for the LC50 in data set [1] (in vivo) and in data set [4] (in vivo) were 12.35 µg/mL (≈ 29.4 µM) and 8.98 µg/mL (≈ 21.4 µM), respectively. Besides, the “Edaphon Toxicity (15 d) (Inhibition ratio when added amount is 100 times of usual dose)” value in data set [2] (setting [5]) is <50%, low toxicity. Also, in data set [3], the “Earthworm Toxicity LC50 (14 d)” value is on record as >10, low toxicity mg/L.

Consider `O=C1CC(C(=O)OCCC(F)=C(F)F)C(c2ccccc2F)O1` (stereo not drawn) [Compound 19], for which the LC50 in data set [1] (in vivo) is 17.24 µg/mL (≈ 51.9 µM); in data set [4] (in vivo), 15.21 µg/mL (≈ 45.8 µM). Further, the “Edaphon Toxicity (15 d) (Inhibition ratio when added amount is 100 times of usual dose)” value in data set [2] (setting [5]) is <50%, low toxicity. For the same molecule, the “Earthworm Toxicity LC50 (14 d)” value in data set [3] is given as >10, low toxicity mg/L.

With `O=C1CC(C(=O)OCCC(F)=C(F)F)C(c2cc(F)c(F)c(F)c2)O1` (stereo not drawn) [Compound 30], the LC50 was found to be 10.96 µg/mL (≈ 29.8 µM) in data set [1] (in vivo) and 9.73 µg/mL (≈ 26.4 µM) in data set [4] (in vivo). Also, the “Edaphon Toxicity (15 d) (Inhibition ratio when added amount is 100 times of usual dose)” value in data set [2] (setting [5]) is on record as <50%, low toxicity. For the same molecule, the “Earthworm Toxicity LC50 (14 d)” value in data set [3] was >10, low toxicity mg/L.

`O=C1CC(C(=O)OCCC(F)=C(F)F)C(c2cc(Cl)cc(Cl)c2Cl)O1` (stereo not drawn) [Compound 12]: the LC50 is 13.35 µg/mL (≈ 32 µM) in data set [1] (in vivo) and 12.30 µg/mL (≈ 29.5 µM) in data set [4] (in vivo). Moreover, the “Edaphon Toxicity (15 d) (Inhibition ratio when added amount is 100 times of usual dose)” value in data set [2] (setting [5]) was <50%, low toxicity. Besides, the “Earthworm Toxicity LC50 (14 d)” value in data set [3] is listed as >10, low toxicity mg/L.

In the case of `CCCCc1ccc(C2OC(=O)CC2C(=O)OCCC(F)=C(F)F)cc1` (stereo not drawn) [Compound 6], the results for the LC50 in data set [1] (in vivo) and in data set [4] (in vivo) were 13.45 µg/mL (≈ 36.3 µM) and 11.81 µg/mL (≈ 31.9 µM), respectively. The “Edaphon Toxicity (15 d) (Inhibition ratio when added amount is 100 times of usual dose)” value in data set [2] (setting [5]) was <50%, low toxicity. For the same molecule, the “Earthworm Toxicity LC50 (14 d)” value in data set [3] is recorded as >10, low toxicity mg/L.

Take `O=C1CC(C(=O)OCCC(F)=C(F)F)C(c2ccc(Cl)cc2F)O1` (stereo not drawn) [Compound 21]: the LC50 was determined as 13.74 µg/mL (≈ 37.5 µM) in data set [1] (in vivo) and 11.98 µg/mL (≈ 32.7 µM) in data set [4] (in vivo). Besides, the “Edaphon Toxicity (15 d) (Inhibition ratio when added amount is 100 times of usual dose)” value in data set [2] (setting [5]) is reported as <50%, low toxicity. Also, the “Earthworm Toxicity LC50 (14 d)” value in data set [3] was >10, low toxicity mg/L.

For `N#Cc1ccc(C2OC(=O)CC2C(=O)OCCC(F)=C(F)F)cc1` (stereo not drawn) [Compound 49], the LC50 in data set [1] (in vivo) turned out to be 11.35 µg/mL (≈ 33.5 µM); in data set [4] (in vivo) it was 10.36 µg/mL (≈ 30.5 µM). Also, the “Edaphon Toxicity (15 d) (Inhibition ratio when added amount is 100 times of usual dose)” value in data set [2] (setting [5]) was <50%, low toxicity. In addition, the “Earthworm Toxicity LC50 (14 d)” value in data set [3] is on record as >10, low toxicity mg/L.

`O=C1CC(C(=O)OCCC(F)=C(F)F)C(c2cccc(Oc3cccc(C(F)(F)F)c3)c2)O1` (stereo not drawn) [Compound 52]: the LC50 in data set [1] (in vivo) turned out to be 13.28 µg/mL (≈ 28 µM); in data set [4] (in vivo), 10.12 µg/mL (≈ 21.3 µM). Besides, the “Edaphon Toxicity (15 d) (Inhibition ratio when added amount is 100 times of usual dose)” value in data set [2] (setting [5]) is listed as <50%, low toxicity. Further, the “Earthworm Toxicity LC50 (14 d)” value in data set [3] was >10, low toxicity mg/L.

As for `CCCc1ccc(C2OC(=O)CC2C(=O)OCCC(F)=C(F)F)cc1` (stereo not drawn) [Compound 5], the LC50 in data set [1] (in vivo) was 9.777 µg/mL (≈ 27.4 µM); in data set [4] (in vivo) it was 8.02 µg/mL (≈ 22.5 µM). Also, in data set [2] (setting [5]), the “Edaphon Toxicity (15 d) (Inhibition ratio when added amount is 100 times of usual dose)” value is recorded as <50%, low toxicity. Moreover, the “Earthworm Toxicity LC50 (14 d)” value in data set [3] is given as >10, low toxicity mg/L.

On to `O=C1CC(C(=O)OCCC(F)=C(F)F)C(c2cc(Cl)cc(Cl)c2)O1` (stereo not drawn) [Compound 13], for which the LC50 in data set [1] (in vivo) turned out to be 16.25 µg/mL (≈ 42.4 µM); in data set [4] (in vivo) it was 15.46 µg/mL (≈ 40.3 µM). Also, the “Edaphon Toxicity (15 d) (Inhibition ratio when added amount is 100 times of usual dose)” value in data set [2] (setting [5]) was <50%, low toxicity. For the same molecule, the “Earthworm Toxicity LC50 (14 d)” value in data set [3] was >10, low toxicity mg/L.

As to `O=C1CC(C(=O)OCCC(F)=C(F)F)C(c2ccc([N+](=O)[O-])cc2)O1` (stereo not drawn) [Compound 58], the LC50 in data set [1] (in vivo) was found to be 12.18 µg/mL (≈ 33.9 µM); in data set [4] (in vivo), 10.07 µg/mL (≈ 28 µM). In addition, the “Edaphon Toxicity (15 d) (Inhibition ratio when added amount is 100 times of usual dose)” value in data set [2] (setting [5]) is listed as <50%, low toxicity. Further, the “Earthworm Toxicity LC50 (14 d)” value in data set [3] is recorded as >10, low toxicity mg/L.

For `O=C1CC(C(=O)OCCC(F)=C(F)F)C(c2ccc(C(F)(F)F)cc2F)O1` (stereo not drawn) [Compound 32], the median lethal concentration (LC50) in data set [1] (in vivo) came to 13.23 µg/mL (≈ 33.1 µM); in data set [4] (in vivo) it was 12.14 µg/mL (≈ 30.3 µM). Further, in data set [2] (setting [5]), the “Edaphon Toxicity (15 d) (Inhibition ratio when added amount is 100 times of usual dose)” value is <50%, low toxicity. Also, the “Earthworm Toxicity LC50 (14 d)” value in data set [3] is reported as >10, low toxicity mg/L.

As to `O=C1CC(C(=O)OCCC(F)=C(F)F)C(c2ccc(F)c(Cl)c2)O1` (stereo not drawn) [Compound 23], the LC50 was found to be 11.24 µg/mL (≈ 30.7 µM) in data set [1] (in vivo) and 10.23 µg/mL (≈ 27.9 µM) in data set [4] (in vivo). For the same molecule, the “Edaphon Toxicity (15 d) (Inhibition ratio when added amount is 100 times of usual dose)” value in data set [2] (setting [5]) is <50%, low toxicity. Further, the “Earthworm Toxicity LC50 (14 d)” value in data set [3] was >10, low toxicity mg/L.

In the case of `O=C1CC(C(=O)OCCC(F)=C(F)F)C(c2ccc(Oc3ccc(Cl)cc3)cc2)O1` (stereo not drawn) [Compound 54], the LC50 in data set [1] (in vivo) was 14.16 µg/mL (≈ 32.1 µM); in data set [4] (in vivo) it was 12.40 µg/mL (≈ 28.1 µM). The “Edaphon Toxicity (15 d) (Inhibition ratio when added amount is 100 times of usual dose)” value in data set [2] (setting [5]) is listed as <50%, low toxicity. Further, in data set [3], the “Earthworm Toxicity LC50 (14 d)” value is listed as >10, low toxicity mg/L.

`COc1ccccc1C1OC(=O)CC1C(=O)OCCC=C(F)F` (stereo not drawn) [Compound 34]: the LC50 in data set [1] (setting [6]) was 13.10 µg/mL (≈ 40.1 µM); in data set [4] (setting [7]), 12.42 µg/mL (≈ 38.1 µM). Also, the “Edaphon Toxicity (15 d) (Inhibition ratio when added amount is 100 times of usual dose)” value in data set [2] (setting [5]) is <50%, low toxicity. Further, in data set [3], the “Earthworm Toxicity LC50 (14 d)” value was >10, low toxicity mg/L.

As for `O=C1CC(C(=O)OCCC(F)=C(F)F)C(c2cc(C(F)(F)F)cc(C(F)(F)F)c2)O1` (stereo not drawn) [Compound 48], the LC50 worked out at 13.27 µg/mL (≈ 29.5 µM) in data set [1] (in vivo) and 12.25 µg/mL (≈ 27.2 µM) in data set [4] (in vivo). In addition, the “Edaphon Toxicity (15 d) (Inhibition ratio when added amount is 100 times of usual dose)” value in data set [2] (setting [5]) was <50%, low toxicity. In data set [3], the “Earthworm Toxicity LC50 (14 d)” value is listed as >10, low toxicity mg/L.

In the case of `O=C1CC(C(=O)OCCC(F)=C(F)F)C(c2ccccc2Cl)O1` (stereo not drawn) [Compound 7], the LC50 in data set [1] (setting [6]) was 13.25 µg/mL (≈ 38 µM); in data set [4] (setting [7]), 12.81 µg/mL (≈ 36.7 µM). Moreover, the “Edaphon Toxicity (15 d) (Inhibition ratio when added amount is 100 times of usual dose)” value in data set [2] (setting [5]) is recorded as <50%, low toxicity. Moreover, the “Earthworm Toxicity LC50 (14 d)” value in data set [3] is >10, low toxicity mg/L.

By LC50 is commonly meant the concentration that kills 50% of the test population. High values mean lower toxicity, low ones greater toxicity.
